In patent US8461170B2, “Chemical compounds” (Astrazeneca AB, priority 2010, dated 2013) one finds IC50 data, which are given here for ten compounds.

Molecules are shown by their SMILES. Read-outs that look alike come from different tables or passages of the source.

The target of one test is T1, human ALK (Homo sapiens, UniProt Q9UM73).
T1 construct: GST (N); purchased Invitrogen, Carlsbad, Calif; (or prepared by AstraZeneca); host or cells: insect cells
As to the kind of experiment: ALK kinase mobility shift assay (Caliper LC3000). It is filed as biochemical. As to conditions: ATP 30 μM (Km) or 5 mM, not specified which. Here is the method:
ALK kinase activity was determined by measuring the kinase's ability to phosphorylate a tyrosine residue within a peptide substrate using a mobility shift assay on a Caliper LC3000 reader (Caliper Life Sciences, Hopkinton, Mass.), which measures fluorescence of the phosphorylated and unphosphorylated substrate and calculates a ratiometric value to determine percent turnover.
To measure ALK kinase activity, the ALK enzyme used was N-terminal GST-tagged, recombinant, human ALK, amino acids 1058-1620 (Genbank Accession number NP_004295) expressed in insect cells and activated in-vitro via autophosphorylation. This was either purchased from a commercially available source (Invitrogen, Carlsbad, Calif.) or prepared by AstraZeneca. The kinase was incubated with a FAM labeled SRCtide substrate (5FAM-GEEPLYWSFPAKKK-NH2, AnaSpec, Fremont, Calif.), 30 μM adenosine triphosphate (ATP, at Km concentration) or 5 mM ATP, 50 mM HEPES buffer (pH 7.3), 1 mM DTT, 0.01% Tween 20, 50 μg/ml BSA and 10 mM MgCl2 for 90 minutes at room temperature. After this time, the kinase reaction was stopped by adding quenching buffer containing final concentrations of 36 mM ethylenediaminetetraacetic acid (EDTA), 65 mM HEPES buffer (pH 7.3), 0.2% Coatin Reagent 3 (Caliper Life Sciences, Hopkinton, Mass.), and 0.003% Tween 20. The reaction was performed in 384 well microtitre plates and the reaction products were detected using the Caliper LC3000 Reader in the presence of separation buffer consisting of 100 mM HEPES (pH 7.3), 15.8 mM EDTA, 0.1% Coatin Reagent 3 (Caliper, Mass.), 0.015% Brij-35, 5% DMSO, and 5.6 mM MgCl2. The separation conditions set up on the Caliper LC3000 were −1.7 PSI, −400V upstream voltage, −2000V downstream voltage, 0.2 second sample sip, 45 second post sip, and 150 seconds final delay. The percentage of inhibition of ALK enzyme activity by compounds were measured based on Max signals (DMSO control) and Min signals (EDTA control) in the plates. Data was graphed and IC50s calculated by IDBS ActivityBase program.

A further test concerns the target ALK (h) (Homo sapiens, UniProt Q9UM73). As to the kind of experiment: alternate ALK protocol (33P-ATP filter-binding radiometric assay). Format: biochemical. As to conditions: 250 μM KKKSPGEYVNIEFG substrate, [γ-33P-ATP], 40 minutes at room temperature, read-out: ALK inhibitory activities (IC50s (μM)). Here is the method: Examples 1, 9 and 10 were additionally tested using an alternate ALK protocol as follows: ALK (h) was incubated with 8 mM MOPS pH 7.0, 0.2 mM EDTA, 250 μM KKKSPGEYVNIEFG, 10 mM MgAcetate and [γ-33P-ATP] (specific activity approx. 500 cpm/pmol, concentration as required). The reaction was initiated by the addition of the MgATP mix. After incubation for 40 minutes at room temperature, the reaction was stopped by the addition of 3% phosphoric acid solution. 10 μL of the reaction was spotted onto a P30 filtermat and washed three times for 5 minutes in 75 mM phosphoric acid and once in methanol prior to drying and scintillation counting. When tested in the assay described above, Examples 1, 9 and 10 each had ALK inhibitory activities (IC50s (μM)) of 0.004, 0.019, and 0.006, respectively.

[1] abbreviates: cumulative geometric means including test re-runs, some obtained since the priority filings, read-out: ALK Enzyme IC50 (μM)**.
[2] abbreviates: geometric means of multiple test runs, as presented in the priority filings, read-out: ALK Enzyme IC50 (μM)*.

T1 sequence (Q9UM73 1058-1620): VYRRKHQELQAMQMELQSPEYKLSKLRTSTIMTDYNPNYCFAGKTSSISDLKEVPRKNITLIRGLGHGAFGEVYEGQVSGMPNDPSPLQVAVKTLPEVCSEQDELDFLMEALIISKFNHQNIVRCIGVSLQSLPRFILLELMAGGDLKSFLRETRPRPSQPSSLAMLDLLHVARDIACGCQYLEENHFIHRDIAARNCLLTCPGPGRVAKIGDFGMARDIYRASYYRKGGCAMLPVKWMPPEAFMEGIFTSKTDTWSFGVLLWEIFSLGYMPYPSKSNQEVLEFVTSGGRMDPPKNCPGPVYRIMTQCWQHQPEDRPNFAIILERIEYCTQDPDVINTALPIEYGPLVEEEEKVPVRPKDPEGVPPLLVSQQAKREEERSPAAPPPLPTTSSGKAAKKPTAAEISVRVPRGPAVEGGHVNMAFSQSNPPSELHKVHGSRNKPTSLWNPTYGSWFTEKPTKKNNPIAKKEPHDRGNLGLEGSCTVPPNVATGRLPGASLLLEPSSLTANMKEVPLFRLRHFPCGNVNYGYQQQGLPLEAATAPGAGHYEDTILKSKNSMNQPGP
ALK (h), sequence (Q9UM73 19-1620): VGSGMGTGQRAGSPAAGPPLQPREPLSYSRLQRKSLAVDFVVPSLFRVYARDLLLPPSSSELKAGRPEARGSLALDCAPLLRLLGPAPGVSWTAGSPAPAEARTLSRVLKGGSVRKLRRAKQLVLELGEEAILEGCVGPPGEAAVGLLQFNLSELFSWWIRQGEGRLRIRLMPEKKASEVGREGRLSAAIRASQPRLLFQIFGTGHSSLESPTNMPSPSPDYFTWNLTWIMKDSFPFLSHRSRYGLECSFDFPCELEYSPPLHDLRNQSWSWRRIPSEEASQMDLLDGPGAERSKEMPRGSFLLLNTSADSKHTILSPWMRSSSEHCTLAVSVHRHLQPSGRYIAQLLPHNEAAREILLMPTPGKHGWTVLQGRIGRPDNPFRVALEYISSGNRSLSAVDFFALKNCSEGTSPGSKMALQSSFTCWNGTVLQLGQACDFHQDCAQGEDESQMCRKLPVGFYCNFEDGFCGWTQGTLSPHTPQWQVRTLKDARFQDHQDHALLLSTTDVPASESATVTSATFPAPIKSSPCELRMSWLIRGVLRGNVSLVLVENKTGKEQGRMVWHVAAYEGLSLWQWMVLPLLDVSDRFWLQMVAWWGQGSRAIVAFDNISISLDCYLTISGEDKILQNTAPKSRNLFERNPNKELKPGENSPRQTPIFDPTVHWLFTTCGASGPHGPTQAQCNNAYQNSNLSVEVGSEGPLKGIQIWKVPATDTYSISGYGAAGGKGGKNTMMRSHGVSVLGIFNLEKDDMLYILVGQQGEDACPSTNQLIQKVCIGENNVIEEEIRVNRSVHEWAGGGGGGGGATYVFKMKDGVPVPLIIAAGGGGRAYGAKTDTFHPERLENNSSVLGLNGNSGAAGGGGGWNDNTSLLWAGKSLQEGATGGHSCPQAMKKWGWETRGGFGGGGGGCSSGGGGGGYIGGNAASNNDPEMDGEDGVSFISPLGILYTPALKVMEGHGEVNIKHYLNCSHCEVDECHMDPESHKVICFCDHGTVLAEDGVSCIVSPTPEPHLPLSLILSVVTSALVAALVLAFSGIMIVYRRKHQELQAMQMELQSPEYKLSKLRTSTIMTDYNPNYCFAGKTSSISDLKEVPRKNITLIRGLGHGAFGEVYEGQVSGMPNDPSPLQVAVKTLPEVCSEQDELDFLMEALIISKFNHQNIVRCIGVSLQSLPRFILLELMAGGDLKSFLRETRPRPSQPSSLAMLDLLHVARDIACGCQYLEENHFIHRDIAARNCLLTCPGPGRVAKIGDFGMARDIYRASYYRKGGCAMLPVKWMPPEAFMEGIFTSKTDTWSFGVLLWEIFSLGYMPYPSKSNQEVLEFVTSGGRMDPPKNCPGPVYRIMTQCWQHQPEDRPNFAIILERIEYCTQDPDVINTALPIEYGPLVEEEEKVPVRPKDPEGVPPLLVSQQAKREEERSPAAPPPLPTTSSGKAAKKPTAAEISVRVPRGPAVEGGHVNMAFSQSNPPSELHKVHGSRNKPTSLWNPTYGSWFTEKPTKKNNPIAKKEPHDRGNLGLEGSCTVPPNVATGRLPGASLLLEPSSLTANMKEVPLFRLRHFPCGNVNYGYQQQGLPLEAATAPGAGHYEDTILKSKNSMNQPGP

Turning to `COc1cc(N2CCC(N)CC2)ccc1Nc1ncc(Cl)c(-c2c[nH]c3ccccc23)n1` [Example 1, N-(4-(4-Aminopiperidin-1-yl)-2-methoxyphenyl)-5-chloro-4-(1H-indol-3-yl)pyrimidin-2-amine], the results for the IC50 on human ALK (setting [1]), at human ALK (setting [2]) and at ALK (h) were 0.021 µM, 0.015 µM and 0.004 µM, respectively.

Regarding `COc1cc(N2CCC(N3CCN(C)CC3)CC2)ccc1Nc1ncc(C)c(-c2c[nH]c3ccccc23)n1` [Example 9, 4-(1H-Indol-3-yl)-N-(2-methoxy-4-(4-(4-methylpiperazin-1-yl)piperidin-1-yl)phenyl)-5-methylpyrimidin-2-amine], the IC50 on human ALK (setting [1]) is 0.068 µM; at human ALK (setting [2]), 0.05 µM; at ALK (h) it was 0.019 µM.

On to `COc1cc(N2CCC(N3CCN(C)CC3)CC2)ccc1Nc1ncc(Cl)c(-c2c[nH]c3ccccc23)n1` [Example 10, 5-Chloro-4-(1H-indol-3-yl)-N-(2-methoxy-4-(4-(4-methylpiperazin-1-yl)piperidin-1-yl)phenyl)pyrimidin-2-amine], for which the values for the IC50 at human ALK (setting [2]) and on ALK (h) were 0.02 µM and 0.006 µM, respectively.

In the case of `COc1cc(N2CCC(N)CC2)ccc1Nc1ncc(Cl)c(-c2cn(C)c3ccccc23)n1` [Example 35, N-(4-(4-aminopiperidin-1-yl)-2-methoxyphenyl)-5-chloro-4-(1-methyl-1H-indol-3-yl)pyrimidin-2-amine], at human ALK (setting [2]), the IC50 is 0.098 µM.

`COc1cc(N2CCC(N3CCN(C)CC3)CC2)ccc1Nc1ncc(F)c(-c2cn(C)c3ccccc23)n1` [Example 36, 5-fluoro-N-(2-methoxy-4-(4-(4-methylpiperazin-1-yl)piperidin-1-yl)phenyl)-4-(1-methyl-1H-indol-3-yl)pyrimidin-2-amine]: the IC50 on human ALK (setting [2]) worked out at 1.48 µM.

`COc1cc(N2CCC(N3CCN(C)CC3)CC2)c(F)cc1Nc1ncc(F)c(-c2c[nH]c3ccccc23)n1` [Example 37, 5-Fluoro-N-[5-fluoro-2-methoxy-4-[4-(4-methylpiperazin-1-yl)-1-piperidyl]phenyl]-4-(1H-indol-3-yl)pyrimidin-2-amine]: the IC50 at human ALK (setting [2]) was found to be 0.244 µM.

For the compound `COc1cc(N2CCC(N3CCN(C)CC3)CC2)c(F)cc1Nc1ncc(C)c(-c2c[nH]c3ccccc23)n1` [Example 38, N-[5-fluoro-2-methoxy-4-[4-(4-methylpiperazin-1-yl)-1-piperidyl]phenyl]-4-(1H-indol-3-yl)-5-methyl-pyrimidin-2-amine], the IC50 at human ALK (setting [2]) stood at 0.258 µM.

As for `COc1cc(N2CCC(N3CCN(C)CC3)CC2)c(F)cc1Nc1ncc(Cl)c(-c2c[nH]c3ccccc23)n1` [Example 39, 5-chloro-N-[5-fluoro-2-methoxy-4-[4-(4-methylpiperazin-1-yl)-1-piperidyl]phenyl]-4-(1H-indol-3-yl)pyrimidin-2-amine], the IC50 on human ALK (setting [2]) worked out at 0.225 µM.

Regarding `COc1cc(N2CCC(N3CCN(C)CC3)CC2)c(Cl)cc1Nc1ncc(Cl)c(-c2c[nH]c3ccccc23)n1` [Example 40, 5-chloro-N-[5-chloro-2-methoxy-4-[4-(4-methylpiperazin-1-yl)-1-piperidyl]phenyl]-4-(1H-indol-3-yl)pyrimidin-2-amine], the IC50 at human ALK (setting [2]) stood at 0.198 µM.

For the compound `COc1cc(N2CCC(N)CC2)ccc1Nc1ncc(F)c(-c2c[nH]c3ccccc23)n1` [Example 41, N-[4-(4-Amino-1-piperidyl)-2-methoxy-phenyl]-5-fluoro-4-(1H-indol-3-yl)pyrimidin-2-amine], the IC50 at human ALK (setting [2]) stood at 0.068 µM.
